Data from publication PMC9090415, “Discovery of small molecule inhibitors of Plasmodium falciparum apicoplast DNA polymerase” (Journal of Enzyme Inhibition and Medicinal Chemistry, 2022).
pIC50: −log10 of the molar value.

Target: P. falciparum apicoplast DNA polymerase (Pf-apPOL) (Plasmodium falciparum, UniProt Q8ILY1)
Experiment: Fluorescence-based high-throughput DNA polymerase assay (molecular beacon), primary screen and dose-response;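 as to % inhibition ApPOL 90': test concentration in µM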;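 as to % inhibition apPOL 180': test concentration in µM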
Type: biochemical
Conditions: for pIC50: supplemental file 2, sheet IC50 nontoxic compounds, Pf-apPOL; for DNA Pol: 90 min, 10 µM
Summary of the method: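 Single-point screening used 10 µM compound with 20 nM polymerase, 20 nM hairpin substrate and 6 µM dNTPs for 90 min at 25 °C. Confirmatory titrations (2.5–80 µM) followed fluorescence at three times, and IC50 was derived from a fit including a cooperativity term n.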

Chain of P. falciparum apicoplast DNA polymerase (Pf-apPOL) (Q8ILY1 entry or part of it): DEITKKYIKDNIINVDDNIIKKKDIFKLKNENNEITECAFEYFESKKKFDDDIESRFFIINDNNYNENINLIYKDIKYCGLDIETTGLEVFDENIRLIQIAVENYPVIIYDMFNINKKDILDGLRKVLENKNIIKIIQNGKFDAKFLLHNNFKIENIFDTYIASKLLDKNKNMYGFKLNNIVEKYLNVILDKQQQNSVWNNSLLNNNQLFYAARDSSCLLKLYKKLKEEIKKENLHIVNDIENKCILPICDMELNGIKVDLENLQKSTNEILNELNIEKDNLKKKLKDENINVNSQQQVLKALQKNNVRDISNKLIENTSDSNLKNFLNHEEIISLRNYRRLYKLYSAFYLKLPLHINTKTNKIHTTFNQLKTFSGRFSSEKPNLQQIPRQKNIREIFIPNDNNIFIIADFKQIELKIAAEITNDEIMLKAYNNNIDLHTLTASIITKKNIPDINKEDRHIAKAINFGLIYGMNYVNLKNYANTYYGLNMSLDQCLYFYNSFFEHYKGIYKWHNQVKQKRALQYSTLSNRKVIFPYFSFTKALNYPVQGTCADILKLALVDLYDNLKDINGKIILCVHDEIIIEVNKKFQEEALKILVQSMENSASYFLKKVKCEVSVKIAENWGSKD

`O=C1N=C(Nc2cccc(Cl)c2Cl)S/C1=C\c1ccco1` [Molecule 3] gave a pIC50 of 5.30.

`O=C(O)CC1SC(c2ccc3c(c2)OCO3)=NC1=O` (stereo not drawn) [Molecule 69] gave a pIC50 of 4.53.

`O=C1NN(c2ccc(Cl)c(Cl)c2)C(=O)/C1=C/c1ccc(-c2ccc3c(c2)C(=O)OC3)o1` [Molecule 90, O=C1NN(C(=O)/C/1=C/c1ccc(o1)c1ccc2c(c1)C(=O)OC2)c1ccc(c(c1)Cl)Cl] was tested, and the “DNA Pol” value ('DNA Pol' of the 186 hits list (screen value)) was 51, the “% inhibition Apo pol 10'” value (DRC-1, conc 2.5) was 36.4105% and the “% inhibition Apo pol 10'” value (DRC-1, conc 5) was 68.8597%. The “% inhibition Apo pol 10'” value (DRC-1, conc 10) was 88.9603%, the “% inhibition Apo pol 10'” value (DRC-1, conc 20) was 93.857% and the “% inhibition Apo pol 10'” value (DRC-1, conc 40) was 90.5867%. For the same compound, the “% inhibition Apo pol 10'” value (DRC-1, conc 80) was 96.7456%, the “% inhibition Apol 90'” value (DRC-1, conc 2.5) was 24.0232% and the “% inhibition Apol 90'” value (DRC-1, conc 5) was 57.3373%. The “% inhibition Apol 90'” value (DRC-1, conc 10) was 84.2476%, the “% inhibition Apol 90'” value (DRC-1, conc 20) was 92.6423% and the “% inhibition Apol 90'” value (DRC-1, conc 40) was 85.5188%. For the same compound, the “% inhibition Apol 90'” value (DRC-1, conc 80) was 95.1265%, the “% inhibition apPOL 180'” value (DRC-1, conc 2.5) was 13.8146% and the “% inhibition apPOL 180'” value (DRC-1, conc 5) was 43.9311%. For the same compound, the “% inhibition apPOL 180'” value (DRC-1, conc 10) was 78.9656%, the “% inhibition apPOL 180'” value (DRC-1, conc 20) was 91.6394% and the “% inhibition apPOL 180'” value (DRC-1, conc 40) was 79.8129%. For the same compound, the “% inhibition apPOL 180'” value (DRC-1, conc 80) was 94.9011%, the “% inhibition Apo pol 5'” value (DRC-2, conc 2.5) was 31% and the “% inhibition Apo pol 5'” value (DRC-2, conc 5) was 10%. The “% inhibition Apo pol 5'” value (DRC-2, conc 10) was 34%, the “% inhibition Apo pol 5'” value (DRC-2, conc 20) was 38% and the “% inhibition Apo pol 5'” value (DRC-2, conc 40) was 61%. The “% inhibition Apo pol 5'” value (DRC-2, conc 80) was 63%, the “% inhibition Apo pol 5'” value (DRC-2, concentration 5) was 10% and the “% inhibition Apo pol 5'” value (DRC-2, concentration 10) was 34%. The “% inhibition Apo pol 5'” value (DRC-2, concentration 80) was 63%, the “% inhibition Apol 40'” value (DRC-2, conc 2.5) was 33% and the “% inhibition Apol 40'” value (DRC-2, conc 5) was 10%. For the same compound, the “% inhibition Apol 40'” value (DRC-2, conc 10) was 37%, the “% inhibition Apol 40'” value (DRC-2, conc 20) was 42% and the “% inhibition Apol 40'” value (DRC-2, conc 40) was 68%. For the same compound, the “% inhibition Apol 40'” value (DRC-2, conc 80) was 79%, the “% inhibition Apol 40'” value (DRC-2, concentration 5) was 10% and the “% inhibition ApPOL 90'” value (DRC-2, conc 2.5) was 30%. For the same compound, the “% inhibition ApPOL 90'” value (DRC-2, conc 5) was 9%, the “% inhibition ApPOL 90'” value (DRC-2, conc 10) was 35% and the “% inhibition ApPOL 90'” value (DRC-2, conc 20) was 40%. For the same compound, the “% inhibition ApPOL 90'” value (DRC-2, conc 40) was 67%, the “% inhibition ApPOL 90'” value (DRC-2, conc 80) was 82% and the “% inhibition apPOL 180'” value (DRC-2, conc 2.5) was 24%. The “% inhibition apPOL 180'” value (DRC-2, conc 5) was 6%, the “% inhibition apPOL 180'” value (DRC-2, conc 10) was 29% and the “% inhibition apPOL 180'” value (DRC-2, conc 20) was 34%. The “% inhibition apPOL 180'” value (DRC-2, conc 40) was 63%, the “% inhibition apPOL 180'” value (DRC-2, conc 80) was 83% and the “% inhibition apPOL 180'” value (DRC-2, concentration 20) was 34%. The “% inhibition apPOL 180'” value (DRC-2, concentration 40) was 63% and the “DNA Pol” value (primary screen value, "DNA Pol") was 51.

With `Cc1cc(C)c(O)c(/N=C/c2cc([N+](=O)[O-])cc(Br)c2O)c1` [KU0046272] the “% inhibition Apo pol 10'” value (DRC-1, concentration 2.5) was 3.169%, the “% inhibition Apo pol 10'” value (DRC-1, concentration 5) was -1.228% and the “% inhibition Apo pol 10'” value (DRC-1, concentration 10) was 12.3955%. The “% inhibition Apo pol 10'” value (DRC-1, concentration 20) was 36.9804%, the “% inhibition Apo pol 10'” value (DRC-1, concentration 40) was 60.3951% and the “% inhibition Apo pol 10'” value (DRC-1, concentration 80) was 90.16%. For the same compound, the “% inhibition Apol 90'” value (DRC-1, concentration 2.5) was -6.623%, the “% inhibition Apol 90'” value (DRC-1, concentration 5) was -11.6285% and the “% inhibition Apol 90'” value (DRC-1, concentration 10) was 2.689%. For the same compound, the “% inhibition Apol 90'” value (DRC-1, concentration 20) was 23.1885%, the “% inhibition Apol 90'” value (DRC-1, concentration 40) was 44.716% and the “% inhibition Apol 90'” value (DRC-1, concentration 80) was 85.7846%. For the same compound, the “% inhibition apPOL 180'” value (DRC-1, concentration 2.5) was -11.4225%, the “% inhibition apPOL 180'” value (DRC-1, concentration 5) was -16.1751% and the “% inhibition apPOL 180'” value (DRC-1, concentration 10) was -3.511%. For the same compound, the “% inhibition apPOL 180'” value (DRC-1, concentration 20) was 14.6468%, the “% inhibition apPOL 180'” value (DRC-1, concentration 40) was 35.3485% and the “% inhibition apPOL 180'” value (DRC-1, concentration 80) was 85.8895%. For the same compound, the “% inhibition Apo pol 5'” value (DRC-2, concentration 2.5) was 7%, the “% inhibition Apo pol 5'” value (DRC-2, concentration 5) was 6% and the “% inhibition Apo pol 5'” value (DRC-2, concentration 10) was 4.64%. For the same compound, the “% inhibition Apo pol 5'” value (DRC-2, concentration 20) was 17%, the “% inhibition Apo pol 5'” value (DRC-2, concentration 40) was 41% and the “% inhibition Apo pol 5'” value (DRC-2, concentration 80) was 54%. For the same compound, the “% inhibition Apol 40'” value (DRC-2, concentration 2.5) was 2%, the “% inhibition Apol 40'” value (DRC-2, concentration 5) was 4.73% and the “% inhibition Apol 40'” value (DRC-2, concentration 10) was 4%. For the same compound, the “% inhibition Apol 40'” value (DRC-2, concentration 20) was 19%, the “% inhibition Apol 40'” value (DRC-2, concentration 40) was 47% and the “% inhibition Apol 40'” value (DRC-2, concentration 80) was 72%. The “% inhibition ApPOL 90'” value (DRC-2, concentration 2.5) was 1%, the “% inhibition ApPOL 90'” value (DRC-2, concentration 5) was 3.45% and the “% inhibition ApPOL 90'” value (DRC-2, concentration 10) was 2.43%. For the same compound, the “% inhibition ApPOL 90'” value (DRC-2, concentration 20) was 20%, the “% inhibition ApPOL 90'” value (DRC-2, concentration 40) was 47% and the “% inhibition ApPOL 90'” value (DRC-2, concentration 80) was 75%. For the same compound, the “% inhibition apPOL 180'” value (DRC-2, concentration 2.5) was -0.688%, the “% inhibition apPOL 180'” value (DRC-2, concentration 5) was 1.3% and the “% inhibition apPOL 180'” value (DRC-2, concentration 10) was 1.29%. For the same compound, the “% inhibition apPOL 180'” value (DRC-2, concentration 20) was 17%, the “% inhibition apPOL 180'” value (DRC-2, concentration 40) was 40% and the “% inhibition apPOL 180'” value (DRC-2, concentration 80) was 75%. The “% inhibition Apo pol 5'” value (conc. 20, DRC-2) was 17%, the “% inhibition apPOL 180'” value (conc. 20, DRC-2) was 17% and the “% inhibition Apol 40'” value (conc. 40, DRC-2) was 47%. The “% inhibition ApPOL 90'” value (conc. 40, DRC-2) was 47%, the “% inhibition ApPOL 90'” value (conc. 80, DRC-2) was 75% and the “% inhibition apPOL 180'” value (conc. 80, DRC-2) was 75%. For the same compound, the “DNA Pol” value (primary screen value by plate and well) was 45 and the “DNA Pol” value (primary screen value of the 186 hits, unit not given) was 45.
